# Results from ChEMBL document CHEMBL5625161, “Pharmacological activity and mechanism of pyrazines” (Eur J Med Chem, 2023).
# Experiments:
# Human coronavirus 229E = experiment: Antiviral activity against Human coronavirus 229E cells assessed as inhibition of virus-induced cytopathic effect by crystal violet staining based analysis; assay type: functional, organism-based
# [1] = Cytotoxicity against human MRC5 cells assessed as reduction in cell growth measured after 48 hrs by MTT assay; assay type: toxicity, cell-based
# MCF7 [2] = experiment: Cytotoxicity against human MCF7 cells assessed as reduction in cell growth measured after 48 hrs by MTT assay; assay type: functional, cell-based; conditions: MCF7, 48 h
# MCF7 [3] = experiment: Growth inhibition of human MCF7 cells measured after 48 hrs by SRB assay; assay type: functional
# [4] = Cytotoxicity against African green monkey Vero cells incubated for 48 hrs by SRB colorimetric assay; assay type: toxicity, cell-based, Chlorocebus sabaeus
# NCI-H460 = experiment: Growth inhibition of human NCI-H460 cells measured after 48 hrs by SRB assay; assay type: functional
# Caco-2 = experiment: Growth inhibition of human Caco-2 cells measured after 48 hrs by SRB assay; assay type: functional
# BGC-823 = experiment: Antiproliferative activity against human BGC-823 cells assessed as reduction in cell growth by MTT assay; assay type: functional, cell-based
# A-375 = experiment: Antiproliferative activity against human A-375 cells assessed as reduction in cell growth by MTT assay; assay type: functional, cell-based
# MCF7 [5] = experiment: Antiproliferative activity against human MCF7 cells assessed as reduction in cell growth by MTT assay; assay type: functional, cell-based
# MIA PaCa-2 = experiment: Antiproliferative activity against human MIA PaCa-2 cells assessed as reduction in cell growth by MTT assay; assay type: functional, cell-based
# HCT-116 [6] = experiment: Antiproliferative activity against human HCT-116 cells assessed as reduction in cell growth by MTT assay; assay type: functional, cell-based
# [7] = Antiproliferative activity against mouse Ba/F3 EML4-ALK cells assessed as inhibition of cell growth; assay type: functional, cell-based
# A549 [8] = experiment: Antiproliferative activity against human A549 cells assessed as reduction in cell viability measured after 3 to 4 days by MTT assay; assay type: functional, cell-based
# [9] = Antiproliferative activity against human WI-38 cells assessed as reduction in cell growth measured after 3 to 4 days by MTT assay; assay type: toxicity, cell-based
# HepG2 = experiment: Antiproliferative activity against human HepG2 cells assessed as reduction in cell viability measured after 3 to 4 days by MTT assay; assay type: functional, cell-based
# CCRF-CEM = experiment: Antiproliferative activity against human CEM cells assessed as reduction in cell viability measured after 3 to 4 days by MTT assay; assay type: functional, cell-based
# [10] = Antiproliferative activity against human Molt 4/C8 cells assessed as reduction in cell growth measured after 3 to 4 days by MTT assay; assay type: functional, cell-based; conditions: Molt4/C8
# L1210 = experiment: Antiproliferative activity against mouse L1210 cells assessed as reduction in cell viability measured after 3 to 4 days by MTT assay; assay type: functional, cell-based
# SW-620 [11] = experiment: Antiproliferative activity against human SW-620 cells assessed as reduction in cell growth measured after 3 to 4 days by MTT assay; assay type: functional, cell-based
# MCF7 [12] = experiment: Antiproliferative activity against human MCF7 cells assessed as reduction in cell growth measured after 3 to 4 days by MTT assay; assay type: functional, cell-based
# HeLa = experiment: Antiproliferative activity against human HeLa cells assessed as reduction in cell viability measured after 3 to 4 days by MTT assay; assay type: functional, cell-based
# [13] = target: Fibroblast growth factor receptor 1 (Homo sapiens, UniProt P11362); experiment: Inhibition of human recombinant FGFR1 (461 to 768 residues) expressed in Escherichia coli BL21 Gold(DE3) cells by spectrophotometer method
# KG-1 = experiment: Antiproliferative activity against FGFR1-translocated human KG-1 cells assessed as reduction in cell viability incubated for 72 hrs by CCK-8 assay; assay type: functional, cell-based; conditions: KG-1, 72 h
# A549 [14] = experiment: Cytotoxicity against human A549 cells assessed as reduction in cell growth measured after 24 hrs by MTT assay; assay type: functional, cell-based; conditions: A549, 24 h
# A549 [15] = experiment: Cytotoxicity against human A549 cells assessed as cell growth inhibition at 10 uM measured after 48 hrs by SRB assay relative to control; assay type: functional; set-up: scale not given: the % may be the effect or the level left
# SNB-75 = experiment: Cytotoxicity against human SNB-75 cells assessed as cell growth inhibition at 10 uM measured after 48 hrs by SRB assay relative to control; assay type: functional; set-up: scale not given: the % may be the effect or the level left
# LOX IMVI = experiment: Cytotoxicity against human LOX IMVI cells assessed as cell growth inhibition at 10 uM measured after 48 hrs by SRB assay relative to control; assay type: functional; set-up: scale not given: the % may be the effect or the level left
# MDA-MB-231 = experiment: Cytotoxicity against human MDA-MB-231 cells assessed as cell growth inhibition at 10 uM measured after 48 hrs by SRB assay relative to control; assay type: functional; set-up: scale not given: the % may be the effect or the level left
# PC-3 = experiment: Cytotoxicity against human PC-3 cells assessed as cell growth inhibition at 10 uM measured after 48 hrs by SRB assay relative to control; assay type: functional; set-up: scale not given: the % may be the effect or the level left
# [16] = target: Aldo-keto reductase family 1 member B1 (Homo sapiens, UniProt P15121); experiment: Inhibition of human recombinant ALDR1
# AGS = experiment: Growth inhibition of human AGS cells measured after 48 hrs by SRB assay; assay type: functional
# Plasmodium falciparum = experiment: Antiplasmodial activity against chloroquine-sensitive Plasmodium falciparum NF54 assessed as reduction in parasite growth; assay type: functional, organism-based
# [17] = system: Mycobacterium tuberculosis; experiment: Antimycobacterial activity against Mycobacterium tuberculosis H37Rv assessed as inhibition of bacterial growth by microplate alamar blue assay; assay type: functional
# HCT-116 [18] = experiment: Antiproliferative activity against human HCT-116 cells assessed as reduction in cell viability incubated for 72 hrs by MTT assay; assay type: functional, cell-based; conditions: HCT-116, 72 h
# SW-620 [19] = experiment: Antiproliferative activity against human SW620 cells assessed as reduction in cell viability incubated for 72 hrs by MTT assay; assay type: functional, cell-based; conditions: SW-620, 72 h
# [20] = Cytotoxicity against mouse HL-1 cells assessed as cell viability incubated for 24 hrs by CytoTox-Glo luminescence assay relative to control; assay type: toxicity, cell-based
# Chain of Fibroblast growth factor receptor 1 (P11362 whole entry, the tested form may be a part): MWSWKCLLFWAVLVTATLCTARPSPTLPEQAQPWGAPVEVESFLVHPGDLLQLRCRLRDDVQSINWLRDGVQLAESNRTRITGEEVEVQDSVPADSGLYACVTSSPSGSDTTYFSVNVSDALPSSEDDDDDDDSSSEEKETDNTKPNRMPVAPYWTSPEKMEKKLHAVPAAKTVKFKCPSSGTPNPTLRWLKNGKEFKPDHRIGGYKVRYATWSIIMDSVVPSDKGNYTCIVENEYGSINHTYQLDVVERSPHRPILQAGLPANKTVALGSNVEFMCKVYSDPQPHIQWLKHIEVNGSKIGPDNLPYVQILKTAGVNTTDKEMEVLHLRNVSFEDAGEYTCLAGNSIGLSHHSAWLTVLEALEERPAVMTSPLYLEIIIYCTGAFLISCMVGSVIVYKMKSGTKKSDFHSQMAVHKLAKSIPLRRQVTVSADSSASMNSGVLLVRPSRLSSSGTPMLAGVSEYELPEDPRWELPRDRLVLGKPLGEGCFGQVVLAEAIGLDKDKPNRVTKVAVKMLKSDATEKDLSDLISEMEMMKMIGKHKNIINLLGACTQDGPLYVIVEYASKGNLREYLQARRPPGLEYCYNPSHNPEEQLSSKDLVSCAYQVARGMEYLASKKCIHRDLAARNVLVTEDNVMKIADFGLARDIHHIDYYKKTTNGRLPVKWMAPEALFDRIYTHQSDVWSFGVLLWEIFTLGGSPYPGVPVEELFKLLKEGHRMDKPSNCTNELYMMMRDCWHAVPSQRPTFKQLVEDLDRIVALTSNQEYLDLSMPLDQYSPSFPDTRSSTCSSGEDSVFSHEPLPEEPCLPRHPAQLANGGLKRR
compound,measurement,setting,value
c1cc(-c2nc3cnccn3c2NC2CCCCC2)ccn1,IC50,Human coronavirus 229E,57 µM
C/C(=N\NC(=S)N1CCCCC1)c1cnccn1,IC50 at 48 h,[1],> 60 µM
same,IC50,MCF7 [2],3.82 µM
COC(=O)c1sc2nccnc2c1Nc1cc(OC)cc(OC)c1,GI50,MCF7 [3],41 µM
same,IC50 at 48 h,[4],144 µM
same,GI50,NCI-H460,53 µM
same,GI50,Caco-2,87 µM
COc1ccc(OCCN2CCn3nnc(-c4cc(C(C)C)c(O)cc4O)c3C2)cc1,IC50,BGC-823,4.15 µM
same,IC50,A-375,2.29 µM
same,IC50,MCF7 [5],5.58 µM
same,IC50,MIA PaCa-2,6.74 µM
same,IC50,HCT-116 [6],10.2 µM
CCc1nc(C(N)=O)c(Nc2ccc3c(c2)CCN(C2CC=CC2)CC3)nc1NC1CCOCC1,IC50,[7],0.0012 µM
O=C(Nc1ccc(Br)cc1)Nc1ccc(Oc2cnc(C(=O)NC3CCCC3)cn2)cc1,IC50,A549 [8],0.9 µM
same,IC50,[9],> 100 µM
same,IC50,HepG2,0.7 µM
same,IC50,CCRF-CEM,> 250 µM
same,IC50,[10],> 250 µM
same,IC50,L1210,87 µM
same,IC50,SW-620 [11],39.6 µM
same,IC50,MCF7 [12],> 250 µM
same,IC50,HeLa,0.6 µM
COc1cc(OC)c(F)c(/C=C/c2cnc3c(n2)N(S(=O)(=O)c2cn(CCF)cn2)CC3)c1F,IC50,[13],0.6 µM
same,IC50,KG-1,0.0005 µM
N/C(=N\N=C\c1ccccc1)c1cnccn1,IC50,A549 [14],0.173 µg/mL
COc1ccc(-c2cn3c(-c4ccc(OC)cc4)cnc3c(Oc3ccc4c(C)cc(=O)oc4c3)n2)cc1,Activity,A549 [15],83.52%
same,Activity,SNB-75,85.69%
same,Activity,LOX IMVI,91.98%
same,Activity,MDA-MB-231,93.71%
same,Activity,PC-3,83.52%
O=C(c1ccc(O)cc1)c1ncc(-c2ccc(O)cc2)nc1C(=O)c1ccc(O)cc1,IC50,[16],6.47 µM
COC(=O)c1sc2nccnc2c1Nc1ccc(OC)c(OC)c1,GI50,AGS,9.2 µM
same,IC50 at 48 h,[4],53 µM
same,GI50,Caco-2,8 µM
O=C(NCCNc1ccnc2cc(Cl)ccc12)c1cnccn1,IC50,Plasmodium falciparum,0.647 µM
same,MIC99,[17],320 µM
O=C(Nc1ccc2ccccc2c1)c1c(Cc2ccccc2)n2nc3ccccc3c2c(=O)n1C1CC1,IC50,HCT-116 [18],1.3 µM
same,IC50,SW-620 [19],1.8 µM
S=C(N/N=C(\c1ccccc1)c1ccccn1)Nc1ccccc1,IC50 at 24 h,[20],1.43 µM
